Results as given in patent US6737383B1, “Herbicidal oxadiazolidines” (priority 1999, dated 2004).

Assays:
bedstraw = test: Test B pre/postemergence bedstraw; assay type: in vivo, Galium aparine
Outline: (§1)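 Response is a visual 0-to-10 score relative to untreated plants, where 0 means no effect and 10 means complete control, taken twelve to sixteen days after application. Treatments went onto soil at planting and onto foliage of 1- to 4-leaf plants, using a surfactant-containing non-phytotoxic solvent.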

blackgrass = test: Test B pre/postemergence blackgrass; assay type: in vivo, Alopecurus myosuroides
Outline: as §1

surinam grass = test: Test B pre/postemergence surinam grass; assay type: in vivo, Brachiaria decumbens
Outline: as §1

cocklebur = test: Test B pre/postemergence cocklebur; assay type: in vivo, Xanthium strumarium
Outline: as §1

corn = test: Test B pre/postemergence corn; assay type: in vivo, Zea mays
Outline: as §1

crabgrass = test: Test B pre/postemergence crabgrass; assay type: in vivo, Digitaria sanguinalis
Outline: as §1

giant foxtail = test: Test B pre/postemergence giant foxtail; assay type: in vivo, Setaria faberii
Outline: as §1

rape = test: Test B pre/postemergence rape; assay type: in vivo, Brassica napus
Outline: as §1

soybean = test: Test B pre/postemergence soybean; assay type: in vivo, Glycine max
Outline: as §1

sugar beet = test: Test B pre/postemergence sugar beet; assay type: in vivo, Beta vulgaris
Outline: as §1

velvetleaf = test: Test B pre/postemergence velvetleaf; assay type: in vivo, Abutilon theophrasti
Outline: as §1

wheat = test: Test B pre/postemergence wheat; assay type: in vivo, Triticum aestivum
Outline: as §1

purple nutsedge = test: Test B pre/postemergence purple nutsedge; assay type: in vivo, Cyperus rotundus
Outline: as §1

rice = test: Test B flood test rice; assay type: in vivo, Oryza sativa
Outline: (§2)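 Read-out is a visual response score from 0 (no effect) to 10 (complete control), assigned by comparison with untreated controls. Treatment was applied at the 2-leaf stage, and plants stayed in the greenhouse for twelve to sixteen days before scoring.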

smallflower flatsedge = test: Test B flood test smallflower flatsedge; assay type: in vivo, Cyperus difformis
Outline: as §2

duck salad = test: Test B flood test duck salad; assay type: in vivo, Heteranthera limosa
Outline: as §2

bamyardgrass = test: Test B flood test barnyardgrass; assay type: in vivo, Echinochloa crus-galli
Outline: as §2

[1] = Preemergence, Rate 62 g/ha, scale of 0 to 10 where 0 is no effect and 10 is complete control
[2] = Preemergence, Rate 250 g/ha, scale of 0 to 10 where 0 is no effect and 10 is complete control
[3] = Preemergence, Rate 500 g/ha, scale of 0 to 10 where 0 is no effect and 10 is complete control
[4] = Rate 62 g/ha, Postemergence, scale of 0 to 10 where 0 is no effect and 10 is complete control
[5] = Rate 125 g/ha, Postemergence, scale 0 to 10
[6] = Rate 125 g/ha, Preemergence, scale of 0 to 10 where 0 is no effect and 10 is complete control
[7] = Rate 500 g/ha, Postemergence, scale 0 to 10
[8] = Rate 62 g/ha, headed Pre-emergence (flood test species), scale 0 to 10 (0 no effect, 10 complete control)
[9] = Rate 125 g/ha, Pre-emergence, flood test species, scale 0 to 10 where 0 is no effect and 10 is complete control
[10] = Rate 250 g/ha, Pre-emergence, flood-test species, scale 0 to 10, 0 is no effect, 10 is complete control
[11] = Rate 500 g/ha, Pre-emergence, flood test species, scale 0 to 10 (0 no effect, 10 complete control)

CCOC(=O)C=CCn1c(=O)on(C(=O)N(c2ccc(F)cc2)C(C)C)c1=O [Compound 214]
Bedstraw plant response rating (bedstraw; [1]): 0 | Bedstraw plant response rating (bedstraw; [2]): 0 | Plant response rating, Bedstraw (bedstraw; [3]): 0 | Bedstraw plant response rating (bedstraw; [4]): 0 | Bedstraw plant response rating (bedstraw; [5]): 0 | Bedstraw plant response rating (bedstraw; [6]): 0 | Plant response rating (0 to 10; 0 is no effect, 10 is complete control), Bedstraw (bedstraw; Rate 250 g/ha, Postemergence): 2 | Bedstraw plant response rating (bedstraw; [7]): 8 | Blackgrass plant response rating (blackgrass; [1]): 0 | Blackgrass plant response rating (blackgrass; [2]): 3 | Plant response rating, Blackgrass (blackgrass; [3]): 3 | Blackgrass plant response rating (blackgrass; [4]): 1 | Blackgrass plant response rating (blackgrass; [5]): 4 | Plant response rating (0 to 10; 0 is no effect, 10 is complete control), Blackgrass (blackgrass; Rate 250 g/ha, Postemergence): 4 | Blackgrass plant response rating (blackgrass; [7]): 5 | B. signalgrass plant response rating (surinam grass; [1]): 0 | B. signalgrass plant response rating (surinam grass; Preemergence, Rate 250 g/ha, scale 0 to 10, 0 is no effect, 10 is complete control): 0 | Plant response rating, B. signalgrass (surinam grass; [3]): 0 | B. signalgrass plant response rating (surinam grass; [4]): 0 | B. signalgrass plant response rating (surinam grass; Rate 125 g/ha, Postemergence, scale 0 (no effect) to 10 (complete control)): 0 | B. signalgrass plant response rating (surinam grass; [6]): 0 | Plant response rating (0 to 10; 0 is no effect, 10 is complete control), B. signalgrass (surinam grass; Rate 250 g/ha, Postemergence): 0 | B. signalgrass plant response rating (surinam grass; Rate 500 g/ha, Postemergence, scale 0 to 10, 0 no effect, 10 complete control): 0 | Cocklebur plant response rating (cocklebur; [1]): 0 | Cocklebur plant response rating (cocklebur; [2]): 0 | Plant response rating, Cocklebur (cocklebur; [3]): 0 | Cocklebur plant response rating (cocklebur; [4]): 0 | Cocklebur plant response rating (cocklebur; [5]): 0 | Cocklebur plant response rating (cocklebur; [6]): 0 | Plant response rating (0 to 10; 0 is no effect, 10 is complete control), Cocklebur (cocklebur; Rate 250 g/ha, Postemergence): 0 | Cocklebur plant response rating (cocklebur; [7]): 0 | Corn plant response rating (corn; [1]): 0 | Corn plant response rating (corn; [2]): 0 | Plant response rating, Corn (corn; [3]): 0 | Corn plant response rating (corn; [4]): 0 | Corn plant response rating (corn; [5]): 0 | Corn plant response rating (corn; [6]): 0 | Plant response rating (0 to 10; 0 is no effect, 10 is complete control), Corn (corn; Rate 250 g/ha, Postemergence): 0 | Corn plant response rating (corn; [7]): 0 | Crabgrass plant response rating (crabgrass; [1]): 0 | Crabgrass plant response rating (crabgrass; [2]): 1 | Plant response rating, Crabgrass (crabgrass; [3]): 4 | Crabgrass plant response rating (crabgrass; [4]): 1 | Crabgrass plant response rating (crabgrass; [5]): 3 | Crabgrass plant response rating (crabgrass; [6]): 0 | Plant response rating (0 to 10; 0 is no effect, 10 is complete control), Crabgrass (crabgrass; Rate 250 g/ha, Postemergence): 3 | Crabgrass plant response rating (crabgrass; [7]): 5 | Giant foxtail plant response rating (giant foxtail; [1]): 2 | Giant foxtail plant response rating (giant foxtail; [2]): 6 | Plant response rating, Giant foxtail (giant foxtail; [3]): 6 | Giant foxtail plant response rating (giant foxtail; [4]): 0 | Giant foxtail plant response rating (giant foxtail; [5]): 0 | Giant foxtail plant response rating (giant foxtail; [6]): 3 | Plant response rating (0 to 10; 0 is no effect, 10 is complete control), Giant foxtail (giant foxtail; Rate 250 g/ha, Postemergence): 0 | Giant foxtail plant response rating (giant foxtail; [7]): 4 | Rape plant response rating (rape; [1]): 0 | Rape plant response rating (rape; [2]): 0 | Plant response rating, Rape (rape; [3]): 0 | Rape plant response rating (rape; [4]): 0 | Rape plant response rating (rape; [5]): 0 | Rape plant response rating (rape; [6]): 0 | Plant response rating (0 to 10; 0 is no effect, 10 is complete control), Rape (rape; Rate 250 g/ha, Postemergence): 3 | Rape plant response rating (rape; [7]): 3 | Soybean plant response rating (soybean; [1]): 0 | Soybean plant response rating (soybean; [2]): 0 | Plant response rating, Soybean (soybean; [3]): 4 | Soybean plant response rating (soybean; [4]): 0 | Soybean plant response rating (soybean; [5]): 1 | Soybean plant response rating (soybean; [6]): 0 | Plant response rating (0 to 10; 0 is no effect, 10 is complete control), Soybean (soybean; Rate 250 g/ha, Postemergence): 3 | Soybean plant response rating (soybean; [7]): 3 | Sugarbeets plant response rating (sugar beet; [1]): 0 | Sugarbeets plant response rating (sugar beet; [2]): 0 | Plant response rating, Sugarbeets (sugar beet; [3]): 0 | Sugarbeets plant response rating (sugar beet; [4]): 0 | Sugarbeets plant response rating (sugar beet; [5]): 0 | Sugarbeets plant response rating (sugar beet; [6]): 0 | Plant response rating (0 to 10; 0 is no effect, 10 is complete control), Sugarbeets (sugar beet; Rate 250 g/ha, Postemergence): 0 | Sugarbeets plant response rating (sugar beet; [7]): 0 | Velvetleaf plant response rating (velvetleaf; [1]): 0 | Velvetleaf plant response rating (velvetleaf; [2]): 0 | Plant response rating, Velvetleaf (velvetleaf; [3]): 0 | Velvetleaf plant response rating (velvetleaf; [4]): 0 | Velvetleaf plant response rating (velvetleaf; [5]): 0 | Velvetleaf plant response rating (velvetleaf; [6]): 0 | Plant response rating (0 to 10; 0 is no effect, 10 is complete control), Velvetleaf (velvetleaf; Rate 250 g/ha, Postemergence): 0 | Wheat plant response rating (wheat; [1]): 0 | Wheat plant response rating (wheat; [2]): 0 | Plant response rating, Wheat (wheat; [3]): 0 | Wheat plant response rating (wheat; [4]): 0 | Wheat plant response rating (wheat; [5]): 0 | Wheat plant response rating (wheat; [6]): 0 | Plant response rating (0 to 10; 0 is no effect, 10 is complete control), Wheat (wheat; Rate 250 g/ha, Postemergence): 3 | Nutsedge plant response rating (purple nutsedge; [1]): 0 | Nutsedge plant response rating (purple nutsedge; [4]): 0 | Nutsedge plant response rating (purple nutsedge; [5]): 0 | Plant response rating (0 to 10; 0 is no effect, 10 is complete control), Nutsedge (purple nutsedge; Rate 250 g/ha, Postemergence): 0 | Nutsedge plant response rating (purple nutsedge; [7]): 0 | Rice plant response rating (rice; [8]): 0 | Rice plant response rating (rice; [9]): 0 | Rice plant response rating (rice; [10]): 0 | Rice plant response rating (rice; [11]): 0 | S. Flatsedge plant response rating (smallflower flatsedge; [8]): 0 | S. Flatsedge plant response rating (smallflower flatsedge; [9]): 0 | S. Flatsedge plant response rating (smallflower flatsedge; [10]): 0 | S. Flatsedge plant response rating (smallflower flatsedge; [11]): 0 | Ducksalad plant response rating (duck salad; [8]): 0 | Ducksalad plant response rating (duck salad; [9]): 0 | Ducksalad plant response rating (duck salad; [10]): 0 | Ducksalad plant response rating (duck salad; [11]): 0 | Barnyardgrass plant response rating (bamyardgrass; [8]): 0 | Barnyardgrass plant response rating (bamyardgrass; [9]): 0 | Barnyardgrass plant response rating (bamyardgrass; [10]): 0 | Barnyardgrass plant response rating (bamyardgrass; [11]): 0
